Reference: article PMC3745031 (Bioorganic & medicinal chemistry letters, 2012)

Columns and labels:
HDAC1, HDAC3, and HDAC6 = assay: Isoform preference across HDAC1, HDAC3 and HDAC6; assay type: biochemical
[1] = tested on: HDAC activity of HeLa cell lysates
[2] = tested on: HDAC activity of HeLa cell lysates; settings: ref 16b, cited from earlier work

With `O=C(CCCCC(CC(=O)Nc1ccccc1)c1ccccc1)NO` (stereo not shown) [2b] the “isoform preference in single-concentration screen” value (from here on “isoform preference”) (HDAC1, HDAC3, and HDAC6; 500 nM) was “similarly inhibited HDAC1, HDAC3, and HDAC6”.
With `CC(CCCCC(=O)NO)CC(=O)Nc1ccccc1` (stereo not shown) [2a] the “isoform preference” value (HDAC1, HDAC3, and HDAC6; 500 nM) was “modest dual-preference for HDAC1 and HDAC3 over HDAC6”.
In the case of `CC(C)(C)C(CCCCC(=O)NO)CC(=O)Nc1ccccc1` (stereo not shown) [2c], the “isoform preference” value (HDAC1, HDAC3, and HDAC6; 2 µM) is reported as “preference for HDAC1 and HDAC6 over HDAC3” and the “fold reduced potency compared to SAHA” value [1] is reported as 20 fold.
With `CCCCC(CC)CC(CCCCC(=O)NO)CC(=O)Nc1ccccc1` (stereo not shown) [2d] the “isoform preference” value (HDAC1, HDAC3, and HDAC6; 500 nM) was “preference for HDAC3 over HDAC1 and HDAC6”.
In the case of `O=C(CC(CCCCC(=O)Nc1ccccc1)c1ccccc1)NO` (stereo not shown) [C3-phenyl SAHA variant], the IC50 ([2]; read-out: IC50, HDAC inhibition) is given as 73 µM and the “fold reduced activity versus SAHA” value [2] is given as 811 fold.
